In test [1] the test system is Postia placenta. The experiment in a line: Soil block test (AWPA E10-01, modified), SYP blocks. Particulars: for Average weight loss: 3 months. The procedure: (§1) For the soil block tests, the protocol listed as AWPA (American Wood Preservers' Association) standard E10-01 was used, with some modifications that are noted.
(§2) For pressure treatment, wood blocks (¾ inch cubes) were made from Southern yellow pine (SYP) or birch dried at about 40° C. to constant weight, and weighed before pressure treatment. In a typical experiment, blocks were submerged in an appropriate treatment solution in an autoclave. A vacuum of 10 to 15 inch Hg (380 to 510 torr) was applied for 30 min, followed by a pressure of 150 psi (1.034 MPa) for 1 hr. The treatment solution was then removed and a vacuum of 10 to 15 inch Hg (380 to 510 torr) was applied again to the blocks for 15 min. Excess treatment solution on the surface was allowed to evaporate (30 min in a laboratory fume hood) before the blocks were either weighed or stored in a sealed plastic bag and weighed at a later time.
(§3) For the soil block test, wood blocks were conditioned in a vented incubator at 40° C. until they reached a constant weight (16 to 18 hrs). Blocks were then autoclaved at 100° C. for 30 min under dry cycle. Soil samples with a water holding capacity of 40% were used for these tests. 60 mL of water and 92-100 g of soil were added into a 228 mL French square bottle, and autoclaved at 121° C. for 30 min. A feeder strip, ⅛″×1⅛″×1⅜″ (˜0.31 cm×2.86 cm×3.49 cm), birch for birch blocks and SYP for SYP blocks, was placed on the top of the soil. A testing block was placed on top of the feeder strip and the bottle contents inoculated with an agar strip (˜3 mm×30 mm) containing freshly grown fungus (listed in the results). For brown rot fungi (Postia placenta), SYP blocks and feeder strips were used. For white rot (Irpex lacteus), birch blocks and feeder strips were used. The bottles were loosely capped and allowed to incubate at ˜75% humidity and 25° C. for 3 months. Then the blocks were removed from the bottles and dried at 40° C. to constant weight in a vented incubator (16-18 hr). The weight of each block was determined and the percent weight loss was calculated.
(§4) Blocks were allowed to age for a week in the fume hood after treatment. Half of the blocks were subjected to leaching with water for an additional week before undergoing the soil block test. For leaching, blocks were placed in a beaker and 30 mL of water per block were added. Blocks were allowed to incubate at room temperature under constant stirring, with daily change of water for one week.
SYP blocks were pressure-treated with this solution as above (Example 2). After treatment, the blocks were divided into groups and allowed to age in the hood for either two days or 14 days. The blocks were then placed in a beaker and submerged under water (50 mL water per block), under constant stirring for two weeks. […]

Test [2] has as its system Irpex lacteus. The experiment in a line: Soil block test (AWPA E10-01, modified), birch blocks. Particulars: for Average weight loss: 3 months. The procedure:
as §1, §2, §3, §4

The next test relates to Chaetomium globosum. The experiment in a line: 6-well plate assay, minimal inhibitory concentration. The format is cell-based. Particulars: Chaetomium globosum, 168 h; 6-well agar plate; lowest concentration with no growth after seven days; read-out: Effectiveness at Inhibiting Wood-Rotting Fungi, SR1 (minimal inhibitory concentration). The procedure: (§5) The minimal inhibitory concentration of fungicides against eight fungi was determined in 6-well microtiter plates. Minimal inhibitory concentration is defined as the lowest concentration at which no fungus growth is evident after seven days. A group of eight fungi were used in a screen to identify potential active ingredients to preserve wood. The eight fungi, their classification, and the growth media used to culture them are listed below:
(§6) Growth media were purchased from Difco (from Beckton Dickinson and Co., Sparks, Md.). The growth media were added to water to 2% w/v and autoclaved at 121° C. for 30 min. Autoclaved media were allowed to cool down to ˜50° C. Test chemicals were dissolved in DMSO (dimethyl sulfoxide) individually at 10 mg/mL to generate stock solutions. An appropriate amount of a stock solution was then added to the appropriate growth medium at 50° C. to make up the test media containing various concentrations of individual test chemicals. 10 mL of the medium was added to each well of a 6-well plate and allowed to solidify at room temperature. For each plate, the first well had no chemical, and the remaining five wells contained a particular test chemical at five different concentrations. Eight such plates were prepared for each chemical, using the eight media listed above for the eight test organisms.
(§7) After the media solidified and cooled, a plug (˜2 mm×2 mm) of agar growth medium with fresh grown mycelium from the appropriate fungal culture was used to inoculate each well. The plate was placed in an incubator, and the growth of the fungus monitored. After 4 to 7 days, the growth was scored manually.

The subject of test [3] is Phanerochaete chrysosporium. The description is as above. The format is cell-based. Particulars: Phanerodontia chrysosporium, 168 h; 6-well agar plate; lowest concentration with no growth after seven days; read-out: Effectiveness at Inhibiting Wood-Rotting Fungi, WR3 (minimal inhibitory concentration). On the procedure:
as §5, §6, §7

A further test has as its system Gloeophyllum trabeum. Described as above. Particulars: Gloeophyllum trabeum, 168 h; 6-well agar plate; lowest concentration with no growth after seven days; read-out: Effectiveness at Inhibiting Wood-Rotting Fungi, BR2 (minimal inhibitory concentration). In kind it is cell-based. On the procedure: as §5, §6, §7
The test system of another test is Antrodia vaillantii. The test is described as above. In kind it is cell-based. Particulars: Fibroporia vaillantii, 168 h; 6-well agar plate; lowest concentration with no growth after seven days; read-out: Effectiveness at Inhibiting Wood-Rotting Fungi, BR3 (minimal inhibitory concentration). On the procedure: as §5, §6, §7
Test [4] has as its system Postia placenta. Described as above. In kind it is cell-based. Particulars: Rhodonia placenta, 168 h; 6-well agar plate; lowest concentration with no growth after seven days; read-out: Effectiveness at Inhibiting Wood-Rotting Fungi, BR1 (minimal inhibitory concentration). On the procedure:
as §5, §6, §7

In test [5] the test system is Irpex lacteus. Described as above. In kind it is cell-based. The settings on record: Irpex lacteus, 168 h; 6-well agar plate; lowest concentration with no growth after seven days; read-out: Effectiveness at Inhibiting Wood-Rotting Fungi, WR2 (minimal inhibitory concentration). On the procedure:
as §5, §6, §7

The subject of another test is Trametes versicolor. Described as above. In kind it is cell-based. Particulars: Trametes versicolor, 168 h; 6-well agar plate; lowest concentration with no growth after seven days; read-out: Effectiveness at Inhibiting Wood-Rotting Fungi, WR1 (minimal inhibitory concentration). On the procedure:
as §5, §6, §7

≈ marks a conversion by molar mass, not a printed value.

Experimental findings from patent publication US20060029743A1, “Wood preservatives and methods of wood preservation” (priority 2004, published 2006) are described below.

Regarding `C[Si](Cn1cncn1)(c1ccc(F)cc1)c1ccc(F)cc1` [Flusilazole], the Average weight loss is given as 29% with Postia placenta [1] (SYP blocks pressure-treated with 50 ppm solution in 5% acetic acid); 19% in the test on Postia placenta [1] (SYP blocks pressure-treated with 100 ppm solution in 5% acetic acid); 3.3% in the test with Postia placenta [1] (SYP blocks pressure-treated with 200 ppm solution in 5% acetic acid); 19.5% in the test with Irpex lacteus [2] (birch blocks pressure-treated with 50 ppm solution in 5% acetic acid); 21.7% in the test on Irpex lacteus [2] (birch blocks pressure-treated with 100 ppm solution in 5% acetic acid); 11% in the test with Irpex lacteus [2] (birch blocks pressure-treated with 200 ppm solution in 5% acetic acid). The “Protection against decay (in words)” value is given as “protected against decay” in the test with Postia placenta [1] (SYP blocks, 200 ppm flusilazole solution) and “significantly protected from decay” with Irpex lacteus [2] (birch blocks, 200 ppm flusilazole solution). The MIC in the test on Chaetomium globosum was under 1 µg/mL; in test [3], 1 to 100 µg/mL (≈ 3.17 to 317 µM); in the test on Gloeophyllum trabeum, 1 to 100 µg/mL (≈ 3.17 to 317 µM); in the test with Antrodia vaillantii it was under 1 µg/mL; in the test on Postia placenta [4], under 1 µg/mL; with Irpex lacteus [5], 1 to 100 µg/mL (≈ 3.17 to 317 µM). Further, the MIC in the test on Trametes versicolor is under 1 µg/mL.
